Test system: clinical isolates of pathogenic wound bacteria and yeast
Test: Dual culture overlay assays, whole pathogen panel and antibiotic controls
Type: cell-based
Settings: antibiotic 30 μg; pathogen of each column not given
Protocol: Used pathogens (Table 2) were cultivated in Nutrient broth (Oxoid) at 37° C. during 24 hours prior to test in the antagonism assays.
Dual Culture Overlay Assay Antimicrobial activity was measured by using dual culture overlay assay. The Lactobacillus apinorum and Lactobacillus mellifer strains (Table 2) were put into a filter disk and placed onto supplemented MRS agar plates followed by overnight incubation at 35° C.

SMILES | diameter of the inhibition zone, antibiotic control
O=C(N[C@H](CO)[C@H](O)c1ccc([N+](=O)[O-])cc1)C(Cl)Cl [Cl, Chloramphenicol] | ^S19 millimetres
CO/N=C(\C(=O)N[C@@H]1C(=O)N2C(C(=O)O)=C(COC(N)=O)CS[C@H]12)c1ccco1 [Cx, Cefuroxime sodium] | 28 millimetres

From patent US10287641B2, “Lactobacillus apinorum and Lactobacillus mellifer from honeybees in medical, food and feed applications” (CONCELLAE AB, priority 2014, dated 2019)
